Among the data in patent publication US7745462B2, “Quinoline-2-one derivatives for the treatment of airways diseases” (Novartis AG, priority 2003, dated 2010) are Ki values, retold here.

In one assay the target is β1-adrenoreceptor (Homo sapiens, UniProt P08588). Put plainly: β1-adrenoreceptor binding potency, classical filtration binding assay.
A further assay deals with β2-adrenoreceptor (Homo sapiens, UniProt P07550). The assay is described as follows: β2-adrenoreceptor binding potency, classical filtration binding assay.
[1] abbreviates: read-out: Ki (β1) binding potency, classical filtration binding assay, second value of β2/β1 pair.
Setting [2] is: read-out: Ki (β2) binding potency, classical filtration binding assay, first value of β2/β1 pair.

Like-named read-outs stand apart in the source and are kept apart here.

Chain of β1-adrenoreceptor (P08588 whole entry, species assumed): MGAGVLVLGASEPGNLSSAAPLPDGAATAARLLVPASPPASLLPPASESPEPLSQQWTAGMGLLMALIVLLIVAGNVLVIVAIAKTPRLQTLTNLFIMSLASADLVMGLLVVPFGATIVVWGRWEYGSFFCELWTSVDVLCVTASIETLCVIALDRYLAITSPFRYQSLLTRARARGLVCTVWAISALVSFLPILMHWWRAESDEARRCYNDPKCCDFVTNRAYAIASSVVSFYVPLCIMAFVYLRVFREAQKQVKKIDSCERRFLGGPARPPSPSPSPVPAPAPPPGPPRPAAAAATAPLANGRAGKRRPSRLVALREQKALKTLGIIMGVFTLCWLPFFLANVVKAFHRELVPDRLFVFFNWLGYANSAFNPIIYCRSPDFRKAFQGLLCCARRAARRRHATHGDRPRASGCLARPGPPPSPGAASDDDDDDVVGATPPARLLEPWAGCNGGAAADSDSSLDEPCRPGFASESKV
From the text for β1-adrenoreceptor: (§1) The β2 agonist activity, onset of action and duration of action of the agents of the invention may be tested using the guinea pig tracheal strip in vitro assay according to the procedure of R. A. Coleman and A. T. Nials, J. Pharmacol. Methods 1989, 21, 71.
From the text for β2-adrenoreceptor: as §1

In the case of “5-[R-2-(1R,2R-2-Benzylcyclopentylamino)-1-hydroxyethyl]-8-hydroxy-1H-quinolin-2-one [Example 35]”, the Ki on β1-adrenoreceptor (setting [1]) stood at 6 nM; at β2-adrenoreceptor (setting [2]), 0.4 nM.

For the molecule “5-[R-2-((3aS,5R,6aR)-2-Butyloctahydrocyclopenta[c]pyrrol-5-ylamino)-1-hydroxyethyl]-8-hydroxy-1H-quinolin-2-one and 5-[R-2-((3aS,5S,6aR)-2-butyloctahydrocyclopenta[c]pyrrol-5-ylamino)-1-hydroxyethyl]-8-hydroxy-1H-quinolin-2-one [Example 85]”, the Ki came to 380 nM at β1-adrenoreceptor (setting [1]) and 121 nM at β2-adrenoreceptor (setting [2]).

For `CCCCc1ccc2c(c1)CCC2NC[C@H](O)c1ccc(O)c2[nH]c(=O)ccc12` (mixture of isomers) [Example 3, 5-[R-2-(RS-5-butylindan-1-ylamino)-1-hydroxyethyl]-8-hydroxy-1H-quinolin-2-one], the results for the Ki on β1-adrenoreceptor and on β2-adrenoreceptor were 50 nM and 54 nM, respectively.

For the molecule `CC1c2ccccc2CC1NCC(O)c1ccc(O)c2[nH]c(=O)ccc12` (mixture of isomers) [Example 4, 8-Hydroxy-5-[R-1-hydroxy-2-(1R,2S-1-methylindan-2-ylamino)ethyl]-1H-quinolin-2-one and 8-hydroxy-5-[R-1-hydroxy-2-(1S,2R-1-methylindan-2-ylamino)ethyl]-1H-quinolin-2-one], the Ki turned out to be 115 nM at β1-adrenoreceptor and 6 nM at β2-adrenoreceptor.

`O=c1ccc2c(C(O)CNC3CCCC3C3CCCCC3)ccc(O)c2[nH]1` (mixture of isomers) [Example 33, 5-[R-2-(1S,2S-2-Cyclohexylcyclopentylamino)-1-hydroxyethyl]-8-hydroxy-1H-quinolin-2-one and 5-[R-2-(1R,2R-2-cyclohexylcyclopentylamino)-1-hydroxyethyl]-8-hydroxy-1H-quinolin-2-one]: the Ki on β1-adrenoreceptor came out at 491 nM; at β2-adrenoreceptor it was 48 nM.

On to `O=c1ccc2c([C@@H](O)CN[C@@H]3CCc4ccccc43)ccc(O)c2[nH]1` [Example 1, 8-Hydroxy-5-[R-1-hydroxy-2-(R-indan-1-ylamino)ethyl]-1H-quinolin-2-one], for which the Ki turned out to be 186 nM at β1-adrenoreceptor and 26 nM on β2-adrenoreceptor.

As to `CCC1=C(CC)CC2=C(C1)CC(NC[C@H](O)c1ccc(O)c3[nH]c(=O)ccc13)C2` [Example 30, 5-[R-2-(5,6-Diethyl-2,3,4,7-tetrahydro-1H-inden-2-ylamino)-1-hydroxyethyl]-8-hydroxy-1H-quinolin-2-one], the Ki was determined as 132 nM at β1-adrenoreceptor and 77 nM at β2-adrenoreceptor.

For the molecule `COCC1(NC[C@H](O)c2ccc(O)c3[nH]c(=O)ccc23)Cc2ccccc2C1` [Example 55, 8-Hydroxy-5-[R-1-hydroxy-2-(2-methoxymethylindan-2-ylamino)-ethyl]-1H-quinolin-2-one], the Ki on β1-adrenoreceptor turned out to be 384 nM; on β2-adrenoreceptor it was 128 nM.

With `O=c1ccc2c([C@@H](O)CN[C@H]3Cc4ccc(-c5ccco5)cc4C3)ccc(O)c2[nH]1` [Example 139, 5-[R-2-(S-5-(Furan-2-yl)indan-2-ylamino)-1-hydroxyethyl]-8-hydroxy-1H-quinohnl-2-one], the Ki on β1-adrenoreceptor is 4 nM; at β2-adrenoreceptor, 3 nM.

A word on the Ki: it is the equilibrium dissociation constant of an inhibitor or competing ligand from its target.
